Values after ≈ are worked out from the molar mass of the structure shown. A value given as a limit tells only on which side of the number the result lay.

One assay deals with Mycobacterium tuberculosis. The assay can be described thus: Antituberculosis activity against Mycobacterium tuberculosis at a concentration of 12.5 ug/mL. It is filed as functional.
In turn, `O=c1cc(-c2ccc(Oc3c(O)cc4oc(-c5ccc(O)cc5)cc(=O)c4c3O)cc2)oc2cc(O)cc(O)c12` [HINOKIFLAVONE] showed an inhibition at 12.5 µg/mL of 0%.

The compound `COc1ccc(-c2cc(=O)c3c(OC)c(-c4c(OC)cc5oc(-c6ccc(OC)cc6)cc(=O)c5c4OC)c(OC)cc3o2)cc1` yielded an inhibition at 12.5 µg/mL of 96%.

In the case of `COc1ccc(-c2cc(=O)c3c(OC)cc(OC)c(C4C(=O)c5c(OC)cc(OC)cc5OC4c4ccc(OC)cc4)c3o2)cc1` (centres undefined), 12.5 µg/mL produced 95% inhibition.

With `COc1ccc(-c2cc(=O)c3c(OC)c(-c4cc(OC)ccc4-c4cc(=O)c5c(OC)cc(OC)cc5o4)c(OC)cc3o2)cc1`, at 12.5 µg/mL the inhibition was 1%.

For `O=C1CC(c2ccc(O)c(O)c2)Oc2c1c(O)cc(O[C@]1(O)O[C@H](CO)[C@@H](O)C(O)[C@H]1O)c2C1C(=O)c2c(O)cc(O)cc2OC1c1ccc(O)cc1` (single isomer, unassigned), testing at 12.5 µg/mL gave an inhibition of 0%.

`O=C1CC(c2ccc(O)c(O)c2)Oc2c1c(O)cc(O)c2C1C(=O)c2c(O)cc(O)cc2OC1c1ccc(O)cc1` (centres undefined): at 12.5 µg/mL the inhibition was 0%.

The compound `O=c1cc(-c2ccc(O)c(-c3c(O)cc(O)c4c(=O)cc(-c5ccc(O)cc5)oc34)c2)oc2cc(O)cc(O)c12` [AMENTOFLAVONE] returned an inhibition at 12.5 µg/mL of 0%.

`O=c1cc(-c2ccc(O)c(-c3c(O)cc4oc(-c5ccc(O)cc5)cc(=O)c4c3O)c2)oc2cc(O)cc(O)c12` [ROBUSTAFLAVONE] gave an inhibition at 12.5 µg/mL of 0%.

`CC(=O)Oc1ccc(C2Oc3cc(OC(C)=O)cc(OC(C)=O)c3C(=O)C2c2c(OC(C)=O)cc(OC(C)=O)c3c2OC(c2ccc(OC(C)=O)c(OC(C)=O)c2)CC3=O)cc1` (centres undefined) displayed an inhibition at 12.5 µg/mL of 0%.

Take `COc1ccc2c(c1)OC(c1ccccc1)C(C1C(=O)c3ccc(OC)cc3OC1c1ccccc1)C2=O` (centres undefined): testing at 12.5 µg/mL gave an inhibition of 0%.

In the case of `O=C1CC(c2ccc(O)cc2)Oc2cc(O)c(-c3c(O)cc(O)c4c3OC(c3ccc(O)cc3)CC4=O)c(O)c21` (centres undefined), at 12.5 µg/mL the inhibition was 0%.

With `O=c1cc(-c2cccc(-c3cccc4c(=O)cc(-c5ccccc5)oc34)c2)oc2ccccc12`, testing at 12.5 µg/mL gave an inhibition of 49%.

Compound `O=c1cc(-c2ccccc2-c2cccc3c(=O)cc(-c4ccccc4)oc23)oc2ccccc12` showed an inhibition at 12.5 µg/mL of 0%.

On to `CC(=O)Oc1ccc(C2CC(=O)c3c(cc(OC(C)=O)c(-c4c(OC(C)=O)cc5c(c4OC(C)=O)C(=O)CC(c4ccc(OC(C)=O)cc4)O5)c3OC(C)=O)O2)cc1` (centres undefined), for which the inhibition at 12.5 µg/mL was 0%.

On to `O=C1CC(c2ccc(O)cc2)Oc2c1c(O)cc(O[C@]1(O)O[C@H](CO)[C@@H](O)C(O)[C@H]1O)c2C1C(=O)c2c(O)cc(O)cc2OC1c1ccc(O)cc1` (single isomer, unassigned), for which at 12.5 µg/mL the inhibition was 0%.

`COc1ccc(-c2oc3cc(OC)cc(OC)c3c(=O)c2-c2c(-c3ccc(OC)cc3)oc3cc(OC)cc(OC)c3c2=O)cc1` displayed an inhibition at 12.5 µg/mL of 0%.

As to `O=C1c2c(O)cc(O)cc2OC(c2ccc(O)cc2)C1c1c(O[C@]2(O)O[C@H](CO)[C@@H](O)C(O)[C@H]2O)cc(O)c2c(=O)cc(-c3ccc(O)cc3)oc12` (single isomer, unassigned), testing at 12.5 µg/mL gave an inhibition of 0%.

As for `CC(=O)OC[C@H]1O[C@@](O)(Oc2cc(OC(C)=O)c3c(c2C2C(=O)c4c(OC(C)=O)cc(OC(C)=O)cc4OC2c2ccc(OC(C)=O)cc2)OC(c2ccc(OC(C)=O)cc2)CC3=O)[C@H](O)C(O)[C@@H]1O` (single isomer, unassigned), the inhibition at 12.5 µg/mL came to 0%.

Regarding `O=C1CC(c2ccc(O)cc2)Oc2cc(O)c(-c3c(O)cc4c(c3O)C(=O)CC(c3ccc(O)cc3)O4)c(O)c21` (centres undefined), the inhibition at 12.5 µg/mL is 0%.

As for `O=c1cc(-c2ccccc2)oc2ccc(-c3ccccc3-c3cc(=O)c4ccccc4o3)cc12`, testing at 12.5 µg/mL gave an inhibition of 9%.

Take `O=c1cc(-c2ccc(Oc3c(-c4cccc([N+](=O)[O-])c4)oc4ccccc4c3=O)cc2)oc2ccccc12`: at 12.5 µg/mL the inhibition was 61%.

The compound `O=C1c2c(O)cc(O)cc2OC(c2ccc(O)cc2)C1c1c(O)cc(O)c2c(=O)cc(-c3ccc(O)c(O)c3)oc12` (centres undefined) showed an inhibition at 12.5 µg/mL of 0%.

Regarding `COc1ccc(C2CC(=O)c3c(cc(OC)c(-c4c(OC)cc5c(c4OC)C(=O)CC(c4ccc(OC)cc4)O5)c3OC)O2)cc1` (centres undefined), the inhibition at 12.5 µg/mL was determined as 2%.

The compound `O=c1cc(-c2cccc(-c3ccc4c(=O)cc(-c5ccccc5)oc4c3)c2)oc2ccccc12` had an inhibition at 12.5 µg/mL of 0%.

Compound `COc1ccc(C2CC(=O)c3c(OC)cc(OC)c(C4C(=O)c5c(OC)cc(OC)cc5OC4c4ccc(OC)cc4)c3O2)cc1` (centres undefined) showed an inhibition at 12.5 µg/mL of 87%.

Turning to `CC(=O)Oc1ccc(C2CC(=O)c3c(cc(OC(C)=O)c(-c4c(OC(C)=O)cc(OC(C)=O)c5c4OC(c4ccc(OC(C)=O)cc4)CC5=O)c3OC(C)=O)O2)cc1` (centres undefined), the inhibition at 12.5 µg/mL is 0%.

A further assay has as its system Mycobacterium tuberculosis. The assay can be described thus: Minimum inhibitory concentration against Mycobacterium tuberculosis. Format: functional.
Consider `COc1ccc(-c2cc(=O)c3c(OC)c(-c4c(OC)cc5oc(-c6ccc(OC)cc6)cc(=O)c5c4OC)c(OC)cc3o2)cc1`, for which the MIC was greater than 12.5 µg/mL.

As for `COc1ccc(-c2cc(=O)c3c(OC)cc(OC)c(C4C(=O)c5c(OC)cc(OC)cc5OC4c4ccc(OC)cc4)c3o2)cc1` (centres undefined), it took 12.5 µg/mL (≈ 20 µM) to inhibit growth (MIC).

The compound `COc1ccc(C2CC(=O)c3c(OC)cc(OC)c(C4C(=O)c5c(OC)cc(OC)cc5OC4c4ccc(OC)cc4)c3O2)cc1` (centres undefined) registered an MIC greater than 12.5 µg/mL.

The inhibition is how much of the control response was suppressed. A higher inhibition goes with a response far below the control. What is called MIC is the smallest concentration in the dilution series that meets the test's criterion for growth inhibition. High values mean a need for much substance, low ones inhibition by little substance.

These data come from ChEMBL document CHEMBL1133902, “Biflavonoids as novel antituberculosis agents” (2001).
